Calls of active or inactive are those of the source. Rule as the data show it, for most assays here: actives have a measured EC50 and inactives only a lower limit.
Tests used:
Streptococcus [1] = assay: Luminescence Microorganism-Based Dose Response Follow up to Identify Compounds Cytotoxic to Streptococcus. [Related pubchem assays: 1677 (Project Summary), 1915, 1914, 1902 (Retest at Dose), 1900 (Counter Screen), 1662 (Primary HTS)]; format: functional, organism-based
Streptokinase A = target: T1, Streptokinase A (Streptococcus pyogenes serotype M1, UniProt P10520); assay: S. pyogenes streptokinase expression inhibitors, potency, dose response, plasminogen activation absorbance, OD405 (AID 1914); format: functional, Streptococcus pyogenes M1 GAS;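 also: secreted streptokinase activity via plasminogen activation per viability signal from cell pellet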
T1 sequence (P10520 whole entry): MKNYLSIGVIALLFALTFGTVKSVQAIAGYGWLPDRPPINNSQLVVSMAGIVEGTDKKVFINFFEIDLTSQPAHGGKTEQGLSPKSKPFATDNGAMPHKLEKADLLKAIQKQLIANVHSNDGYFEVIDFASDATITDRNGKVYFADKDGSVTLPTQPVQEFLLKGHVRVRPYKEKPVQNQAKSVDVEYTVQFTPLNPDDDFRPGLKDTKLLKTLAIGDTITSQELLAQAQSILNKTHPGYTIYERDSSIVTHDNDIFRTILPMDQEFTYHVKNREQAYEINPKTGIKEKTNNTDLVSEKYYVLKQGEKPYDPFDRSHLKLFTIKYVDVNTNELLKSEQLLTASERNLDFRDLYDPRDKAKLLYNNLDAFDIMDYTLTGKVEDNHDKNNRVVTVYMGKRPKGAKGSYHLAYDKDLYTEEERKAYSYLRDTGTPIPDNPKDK

Streptococcus [2] = assay: Group A Streptococcus viability loss, dose response, counter-screen for streptokinase expression inhibitor project, luminescence, BacTiterGlo (AID 1915); format: functional, organism-based;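 also: potency for reduction of bacterial viability or growth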
[3] = tested on: Streptococcus sp. 'group A'; assay: growth inhibition of control SK(-) GAS strain, dose response, counter-screen for streptokinase expression inhibitor project, luminescence, kanamycin, BacTiterGlo, confirmation (AID 1900); format: functional, organism-based
[4] = target: T2, RNA-binding protein pos-1 (Caenorhabditis elegans, UniProt G5EF15); assay: inhibitors of POS-1/mex-3 RNA binding, dose response, biochemical, fluorescence polarization (AID 1964);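 also: purified POS-1 fused to maltose binding protein made in E. coli; potency of compounds blocking POS-1 binding to fluorescent RNA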
T2 sequence (G5EF15 whole entry): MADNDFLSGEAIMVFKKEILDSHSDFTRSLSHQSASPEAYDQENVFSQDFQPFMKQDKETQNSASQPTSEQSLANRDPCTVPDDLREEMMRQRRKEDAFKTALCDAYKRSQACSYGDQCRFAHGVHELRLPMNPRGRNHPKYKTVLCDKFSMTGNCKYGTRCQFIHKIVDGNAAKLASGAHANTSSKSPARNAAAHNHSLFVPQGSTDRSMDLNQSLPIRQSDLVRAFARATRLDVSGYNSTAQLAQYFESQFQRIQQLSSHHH

[5] = target: T3, Zinc finger protein mex-5 (Caenorhabditis elegans, UniProt Q9XUB2); assay: MEX-5/TCR-2 RNA interaction inhibitors, dose response, biochemical, C. elegans, fluorescence polarization (AID 1960)
T3 sequence (Q9XUB2 whole entry): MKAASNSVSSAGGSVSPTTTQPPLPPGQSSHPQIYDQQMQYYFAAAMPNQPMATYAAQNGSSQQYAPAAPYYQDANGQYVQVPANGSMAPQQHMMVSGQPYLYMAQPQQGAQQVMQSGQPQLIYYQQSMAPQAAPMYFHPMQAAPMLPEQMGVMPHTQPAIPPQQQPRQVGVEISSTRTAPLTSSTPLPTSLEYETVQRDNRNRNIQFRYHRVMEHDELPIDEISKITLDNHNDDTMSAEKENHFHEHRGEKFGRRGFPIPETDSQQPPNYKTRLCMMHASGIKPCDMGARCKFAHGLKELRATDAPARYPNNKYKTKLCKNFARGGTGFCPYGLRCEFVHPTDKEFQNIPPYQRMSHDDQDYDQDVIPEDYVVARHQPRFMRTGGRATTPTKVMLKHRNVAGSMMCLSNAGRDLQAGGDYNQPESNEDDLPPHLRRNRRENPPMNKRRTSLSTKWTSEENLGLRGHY

NS3 = NS3 (Hepatitis C virus, UniProt A3EZJ3); assay: PubChem AID 2173; set-up: species or system Hepacivirus hominis
NS3, sequence (A3EZJ3 whole entry): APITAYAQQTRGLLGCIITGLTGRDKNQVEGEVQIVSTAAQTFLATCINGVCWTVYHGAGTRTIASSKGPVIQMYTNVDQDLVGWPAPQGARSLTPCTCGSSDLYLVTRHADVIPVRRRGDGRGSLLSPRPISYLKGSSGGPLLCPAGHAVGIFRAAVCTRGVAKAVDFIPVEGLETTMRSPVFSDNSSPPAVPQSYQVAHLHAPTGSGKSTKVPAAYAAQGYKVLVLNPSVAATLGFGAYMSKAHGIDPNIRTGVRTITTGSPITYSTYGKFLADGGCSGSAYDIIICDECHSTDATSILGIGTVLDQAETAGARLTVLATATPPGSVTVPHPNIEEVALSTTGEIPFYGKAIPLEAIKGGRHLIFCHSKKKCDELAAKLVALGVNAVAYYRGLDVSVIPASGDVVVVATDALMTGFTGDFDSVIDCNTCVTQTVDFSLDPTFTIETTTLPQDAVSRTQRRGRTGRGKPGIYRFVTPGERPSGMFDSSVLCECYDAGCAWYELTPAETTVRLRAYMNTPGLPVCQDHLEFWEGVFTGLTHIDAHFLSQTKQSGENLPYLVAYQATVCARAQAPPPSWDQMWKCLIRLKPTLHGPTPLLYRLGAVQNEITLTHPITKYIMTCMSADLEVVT

cells = format: functional, cell-based
[6] = luciferase reporter signal reduction – luminescence, H4-C neuroglioblastoma cells, dose response (AID 2458); format: functional, cell-based;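 also: H4 neuroglioblastoma cells stably carrying a luciferase reporter gene fusion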
[7] = inhibitors of firefly luciferase expression or activity, dose response, H4 neuroglioma cells, luminescence (AID 1990); format: functional, cell-based
[8] = inhibitors of SNCA 5'UTR-driven translation, confirmation, luminescence, H4 neuroglioblastoma cells, dose confirmation (AID 2454); format: functional, cell-based;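 also: H4 neuroglioblastoma cells carrying an alpha-synuclein 5'UTR luciferase reporter; potency for inhibition of the luciferase signal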
[9] = inhibitors of SNCA 5'UTR-driven reporter translation, confirmation, H4 neuroglioma cells, luminescence (AID 1988); format: functional, cell-based

O=C(NC(=S)Nc1ccccc1N1CCCC1)c1ccccc1Br
EC50 (Streptococcus [1]): > 500 µM (not active)
EC50 (Streptokinase A): 6.61 µM (active)
EC50 (Streptococcus [2]): > 150 µM (not active)
EC50 [3]: 32.3 µM (active)

COc1cccc(C2C(C#N)=C(N)OC3=C2C(=O)CC(c2ccco2)C3)c1OCc1ccc(F)cc1 (configuration not stated)
EC50 [4]: > 300 µM (not active)
EC50 [5]: > 300 µM (not active)
IC50 (NS3): 33.5 µM (not active)

COc1ccc(C2NCc3ccc4c(c3-n3cccc32)OCO4)cc1O (configuration not stated)
EC50 (cells): 5.44 µM (active)
EC50 [6]: 2.6 µM (active)
EC50 [7]: < 0.1 µM (active)
EC50 [8]: > 12 µM (not active)
EC50 [9]: < 0.1 µM (active)

Reference: ChEMBL document CHEMBL1201862, “PubChem BioAssay data set” (2004)
